Measured values taken from PubChem BioAssay AID651985 (The Scripps Research Institute Molecular Screening Center, 2013).
Active and inactive are the calls of the source. The rule behind the calls is not given here.

Key:
LYPLA2 = assay: PubChem AID 651985; details: C57 mice dosed, tissue gel ABPP with NHU5 probe, stronger effect = higher value
LYPLA1 = assay: PubChem AID 651985; details: C57 mice dosed, tissue gel ABPP with NHU5 probe, stronger effect = higher value

Compound	inhibition (LYPLA2; heart) [%]	inhibition (LYPLA2)	inhibition (LYPLA2; kidney) [%]	inhibition (LYPLA2; liver) [%]	inhibition (LYPLA2; lung) [%]	inhibition (LYPLA1; heart) [%]	inhibition (LYPLA1)	inhibition (LYPLA1; kidney) [%]	inhibition (LYPLA1; liver) [%]	inhibition (LYPLA1; lung) [%]
O=C(CN1CCN(C(=O)c2ccco2)CC1)Nc1cc(C(F)(F)F)ccc1Cl	0	0% (inactive)	0	0	0	100	25%	75	0	100
COc1ccc(N2CCN(C(=O)c3cc4c(s3)-c3ccccc3S(=O)(=O)C4)CC2)cc1	100	50%	75	0	100	0	0% (inactive)	0	0	0
